Test results published in ChEMBL document CHEMBL1201862, “PubChem BioAssay data set” (2004).
The source made the active and inactive calls.

Experiments:
[1] = target: Protein disulfide-isomerase (Homo sapiens, UniProt P07237); assay: inhibition of PDI-driven insulin aggregation – biochemical, turbidity, absorbance, cherry-picked samples, dose response (AID 602350); type: functional
Nonstructural protein 1 = Nonstructural protein 1 (Influenza A virus, UniProt Q194T2); type: functional, Influenza A virus (A/California/07/2009(H1N1))
Nonstructural protein 1, sequence (Q194T2 whole entry): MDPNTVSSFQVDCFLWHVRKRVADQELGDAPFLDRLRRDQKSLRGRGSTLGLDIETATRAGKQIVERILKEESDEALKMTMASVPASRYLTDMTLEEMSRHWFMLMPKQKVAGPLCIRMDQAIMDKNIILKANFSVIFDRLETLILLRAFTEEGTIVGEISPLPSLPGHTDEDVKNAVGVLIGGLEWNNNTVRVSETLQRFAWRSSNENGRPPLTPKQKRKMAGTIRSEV

[2] = target: 26S proteasome non-ATPase regulatory subunit 14 (Homo sapiens, UniProt O00487); assay: inhibition of proteasome subunit RPN11 – biochemical, fluorescence polarization, uHTS hits, confirmation (AID 602368); type: functional
26S proteasome non-ATPase regulatory subunit 14, sequence (O00487 whole entry): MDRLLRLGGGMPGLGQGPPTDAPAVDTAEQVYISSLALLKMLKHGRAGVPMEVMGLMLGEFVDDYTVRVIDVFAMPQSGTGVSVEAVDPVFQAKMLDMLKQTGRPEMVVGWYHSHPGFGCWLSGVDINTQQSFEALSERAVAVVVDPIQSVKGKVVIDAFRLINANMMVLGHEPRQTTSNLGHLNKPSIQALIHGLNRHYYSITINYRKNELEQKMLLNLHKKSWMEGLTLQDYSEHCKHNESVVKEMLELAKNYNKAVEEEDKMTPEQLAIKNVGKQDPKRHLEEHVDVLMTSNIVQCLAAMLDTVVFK

Streptococcus = assay: GAS UMAA2166 growth inhibition – luminescence, BacTiterGlo, counter-screen for streptokinase expression inhibitor project, dose response (AID 1915); type: functional, organism-based;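 also: potency for reduction of bacterial viability or growth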
[3] = system: Streptococcus sp. 'group A'; assay: Streptococcus pyogenes SK(-)GAS viability under kanamycin – luminescence, BacTiterGlo, confirmation, counter-screen for streptokinase expression inhibitor project, dose response (AID 1900); type: functional, organism-based
[4] = target: 72 kDa type IV collagenase (Homo sapiens, UniProt P08253); assay: Dose Response validation of uHTS RPN11 inhibitor hits using a MMP-2 Fluorescence assay.; type: functional
72 kDa type IV collagenase, sequence (P08253 whole entry): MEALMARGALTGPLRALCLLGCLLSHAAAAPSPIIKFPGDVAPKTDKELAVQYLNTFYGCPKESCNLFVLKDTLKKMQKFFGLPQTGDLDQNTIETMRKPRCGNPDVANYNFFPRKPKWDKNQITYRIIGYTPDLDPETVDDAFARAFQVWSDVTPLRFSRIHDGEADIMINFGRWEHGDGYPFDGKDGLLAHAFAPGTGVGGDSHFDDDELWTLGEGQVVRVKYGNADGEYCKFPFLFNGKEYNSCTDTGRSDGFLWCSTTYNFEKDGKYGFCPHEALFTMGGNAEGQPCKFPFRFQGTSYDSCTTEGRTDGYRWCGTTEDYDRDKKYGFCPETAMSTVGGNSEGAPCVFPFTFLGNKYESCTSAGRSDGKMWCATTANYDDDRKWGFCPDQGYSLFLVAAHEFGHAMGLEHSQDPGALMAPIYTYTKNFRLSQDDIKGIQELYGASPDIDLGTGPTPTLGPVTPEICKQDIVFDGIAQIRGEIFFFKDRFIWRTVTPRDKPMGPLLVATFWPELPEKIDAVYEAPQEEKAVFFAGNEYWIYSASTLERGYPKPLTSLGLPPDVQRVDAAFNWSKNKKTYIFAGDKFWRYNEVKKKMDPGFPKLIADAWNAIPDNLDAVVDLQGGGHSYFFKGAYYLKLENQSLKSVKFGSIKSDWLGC

Prothrombin = Prothrombin (Bos taurus, UniProt P00735); assay: thrombin protease inhibitors – biochemical, fluorescence polarization, uHTS hits, dose response (AID 602369); type: functional
[5] = target: Melanin-concentrating hormone receptor 1 (Homo sapiens, UniProt Q99705); assay: Late-stage fluorescence-based counterscreen for antagonists of the G-protein coupled receptor 7 (GPR7): cell-based dose response assay to identify antagonists of the melanin-concentrating hormone receptor 1 (MCHR1) Set 5.; type: functional
Melanin-concentrating hormone receptor 1, sequence (Q99705 whole entry): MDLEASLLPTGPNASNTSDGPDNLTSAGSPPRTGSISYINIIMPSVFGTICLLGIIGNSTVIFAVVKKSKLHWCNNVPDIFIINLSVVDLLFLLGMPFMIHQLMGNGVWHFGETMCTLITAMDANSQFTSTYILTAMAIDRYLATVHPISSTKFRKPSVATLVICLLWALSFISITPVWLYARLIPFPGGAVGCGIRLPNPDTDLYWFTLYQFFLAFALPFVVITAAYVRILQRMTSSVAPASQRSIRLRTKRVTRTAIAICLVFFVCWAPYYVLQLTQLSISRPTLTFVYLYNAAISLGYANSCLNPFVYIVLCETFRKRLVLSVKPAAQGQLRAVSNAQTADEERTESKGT

[6] = target: Neuropeptides B/W receptor type 1 (Homo sapiens, UniProt P48145); assay: human NPBW1 receptor blockade, IC50 – cell-based, fluorescence, dose response, set 5, late-stage follow-up (AID 588566); type: functional
Neuropeptides B/W receptor type 1, sequence (P48145 whole entry): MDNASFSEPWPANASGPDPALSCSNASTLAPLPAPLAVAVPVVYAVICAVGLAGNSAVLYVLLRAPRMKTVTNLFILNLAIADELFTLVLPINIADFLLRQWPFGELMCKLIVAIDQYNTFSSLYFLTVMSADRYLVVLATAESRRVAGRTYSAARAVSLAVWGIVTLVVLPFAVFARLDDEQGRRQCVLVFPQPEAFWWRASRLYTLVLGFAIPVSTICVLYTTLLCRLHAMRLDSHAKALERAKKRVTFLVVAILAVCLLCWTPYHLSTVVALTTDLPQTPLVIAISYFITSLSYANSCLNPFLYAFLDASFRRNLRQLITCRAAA

[7] = target: Dual specificity protein kinase CLK4 (Homo sapiens, UniProt Q9HAZ1); type: functional
Dual specificity protein kinase CLK4, sequence (Q9HAZ1 whole entry): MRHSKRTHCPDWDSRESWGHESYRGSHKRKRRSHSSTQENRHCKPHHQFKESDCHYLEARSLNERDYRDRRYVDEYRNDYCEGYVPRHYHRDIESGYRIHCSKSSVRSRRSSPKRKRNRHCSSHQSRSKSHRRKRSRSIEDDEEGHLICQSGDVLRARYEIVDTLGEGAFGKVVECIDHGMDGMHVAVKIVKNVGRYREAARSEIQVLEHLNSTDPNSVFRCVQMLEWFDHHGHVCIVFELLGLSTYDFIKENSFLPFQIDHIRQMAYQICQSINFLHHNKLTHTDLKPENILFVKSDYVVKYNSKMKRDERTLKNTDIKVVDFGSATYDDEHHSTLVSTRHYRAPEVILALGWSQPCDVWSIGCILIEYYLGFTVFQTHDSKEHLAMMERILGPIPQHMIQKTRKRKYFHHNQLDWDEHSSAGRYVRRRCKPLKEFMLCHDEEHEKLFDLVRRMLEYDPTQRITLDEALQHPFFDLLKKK

[8] = target: Cyclin-dependent kinase 8 (Homo sapiens, UniProt P49336); assay: Navigating the Kinome. Panel member name: CDK8; type: functional
Cyclin-dependent kinase 8, sequence (P49336 whole entry): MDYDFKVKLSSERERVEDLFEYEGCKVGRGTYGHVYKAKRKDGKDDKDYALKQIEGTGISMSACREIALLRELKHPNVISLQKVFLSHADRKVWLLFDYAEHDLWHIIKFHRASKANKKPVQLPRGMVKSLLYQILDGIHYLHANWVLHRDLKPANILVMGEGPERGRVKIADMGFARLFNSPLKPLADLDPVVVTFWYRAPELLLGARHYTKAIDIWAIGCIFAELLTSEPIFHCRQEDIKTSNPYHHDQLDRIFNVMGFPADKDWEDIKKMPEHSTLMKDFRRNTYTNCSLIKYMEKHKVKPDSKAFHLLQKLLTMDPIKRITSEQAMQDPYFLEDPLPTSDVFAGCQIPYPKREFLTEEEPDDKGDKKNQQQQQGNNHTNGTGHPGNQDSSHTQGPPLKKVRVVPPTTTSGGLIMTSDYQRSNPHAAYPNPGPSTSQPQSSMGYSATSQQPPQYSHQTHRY

[9] = target: T1, Sentrin-specific protease 6 (Homo sapiens, UniProt Q9GZR1); assay: SAR Analysis of small molecule inhibitors of Sentrin-specific protease 6 (SENP6) using a Luminescent assay. [Related pubchem assays (depositor defined):AID2582, AID2599]; type: functional
T1 sequence (Q9GZR1 whole entry): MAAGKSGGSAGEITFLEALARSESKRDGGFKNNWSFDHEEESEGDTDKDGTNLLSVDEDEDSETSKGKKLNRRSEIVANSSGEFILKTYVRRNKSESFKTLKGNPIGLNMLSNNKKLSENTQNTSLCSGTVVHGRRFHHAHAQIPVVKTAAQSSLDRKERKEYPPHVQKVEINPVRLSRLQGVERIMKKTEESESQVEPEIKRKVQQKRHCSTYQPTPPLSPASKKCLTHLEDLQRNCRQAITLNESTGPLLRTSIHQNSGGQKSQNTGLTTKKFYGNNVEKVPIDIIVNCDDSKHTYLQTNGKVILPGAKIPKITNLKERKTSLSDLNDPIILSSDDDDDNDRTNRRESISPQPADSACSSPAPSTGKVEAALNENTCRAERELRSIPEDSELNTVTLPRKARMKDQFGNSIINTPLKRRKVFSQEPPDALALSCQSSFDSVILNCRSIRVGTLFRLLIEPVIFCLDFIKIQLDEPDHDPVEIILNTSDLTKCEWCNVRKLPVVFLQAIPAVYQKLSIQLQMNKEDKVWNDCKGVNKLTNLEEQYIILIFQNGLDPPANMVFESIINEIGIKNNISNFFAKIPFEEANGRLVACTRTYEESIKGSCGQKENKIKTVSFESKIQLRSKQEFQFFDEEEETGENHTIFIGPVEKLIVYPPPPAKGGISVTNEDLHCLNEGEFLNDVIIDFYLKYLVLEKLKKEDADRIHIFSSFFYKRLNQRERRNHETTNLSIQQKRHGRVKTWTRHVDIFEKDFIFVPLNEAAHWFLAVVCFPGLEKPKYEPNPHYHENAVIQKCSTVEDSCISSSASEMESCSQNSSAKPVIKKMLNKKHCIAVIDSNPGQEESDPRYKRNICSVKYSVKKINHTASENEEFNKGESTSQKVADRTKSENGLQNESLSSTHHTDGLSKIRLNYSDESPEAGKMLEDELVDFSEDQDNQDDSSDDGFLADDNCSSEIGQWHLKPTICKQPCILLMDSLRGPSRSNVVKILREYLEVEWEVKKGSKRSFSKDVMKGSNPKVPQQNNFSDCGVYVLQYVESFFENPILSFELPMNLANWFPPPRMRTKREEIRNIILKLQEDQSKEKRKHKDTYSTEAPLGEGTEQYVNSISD

Caspase-3 = target: T2, Caspase-3 (Homo sapiens, UniProt P42574); assay: SAR Analysis of small molecule inhibitors of Sentrin-specific proteases (SENPs) using a Caspase-3 Selectivity assay. [Related pubchem assays (depositor defined):AID2540, AID2599, AID434973, AID489001]; type: functional
T2 sequence (P42574 whole entry): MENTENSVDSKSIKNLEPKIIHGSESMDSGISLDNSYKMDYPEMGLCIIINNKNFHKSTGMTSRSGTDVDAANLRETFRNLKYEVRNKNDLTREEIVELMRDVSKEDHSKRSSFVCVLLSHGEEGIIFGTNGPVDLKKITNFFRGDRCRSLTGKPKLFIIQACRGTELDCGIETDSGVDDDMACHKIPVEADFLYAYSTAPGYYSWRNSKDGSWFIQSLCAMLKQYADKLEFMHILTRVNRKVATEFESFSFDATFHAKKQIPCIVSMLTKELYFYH

[10] = target: T3, Sentrin-specific protease 8 (Homo sapiens, UniProt Q96LD8); assay: inhibition of human SENP8 cleavage activity – biochemical, luminescence, SAR follow-up (AID 504501); type: functional
T3 sequence (Q96LD8 whole entry): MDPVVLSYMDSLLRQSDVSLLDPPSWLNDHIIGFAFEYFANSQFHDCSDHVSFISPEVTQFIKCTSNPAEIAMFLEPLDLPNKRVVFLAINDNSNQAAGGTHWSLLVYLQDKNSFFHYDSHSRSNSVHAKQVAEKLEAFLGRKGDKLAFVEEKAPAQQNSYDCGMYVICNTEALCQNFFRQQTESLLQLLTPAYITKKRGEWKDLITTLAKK

[11] = target: T4, Sentrin-specific protease 7 (Homo sapiens, UniProt Q9BQF6); assay: inhibition of human SENP7 cleavage activity – biochemical, luminescence, SAR follow-up (AID 504497); type: functional
T4 sequence (Q9BQF6 whole entry): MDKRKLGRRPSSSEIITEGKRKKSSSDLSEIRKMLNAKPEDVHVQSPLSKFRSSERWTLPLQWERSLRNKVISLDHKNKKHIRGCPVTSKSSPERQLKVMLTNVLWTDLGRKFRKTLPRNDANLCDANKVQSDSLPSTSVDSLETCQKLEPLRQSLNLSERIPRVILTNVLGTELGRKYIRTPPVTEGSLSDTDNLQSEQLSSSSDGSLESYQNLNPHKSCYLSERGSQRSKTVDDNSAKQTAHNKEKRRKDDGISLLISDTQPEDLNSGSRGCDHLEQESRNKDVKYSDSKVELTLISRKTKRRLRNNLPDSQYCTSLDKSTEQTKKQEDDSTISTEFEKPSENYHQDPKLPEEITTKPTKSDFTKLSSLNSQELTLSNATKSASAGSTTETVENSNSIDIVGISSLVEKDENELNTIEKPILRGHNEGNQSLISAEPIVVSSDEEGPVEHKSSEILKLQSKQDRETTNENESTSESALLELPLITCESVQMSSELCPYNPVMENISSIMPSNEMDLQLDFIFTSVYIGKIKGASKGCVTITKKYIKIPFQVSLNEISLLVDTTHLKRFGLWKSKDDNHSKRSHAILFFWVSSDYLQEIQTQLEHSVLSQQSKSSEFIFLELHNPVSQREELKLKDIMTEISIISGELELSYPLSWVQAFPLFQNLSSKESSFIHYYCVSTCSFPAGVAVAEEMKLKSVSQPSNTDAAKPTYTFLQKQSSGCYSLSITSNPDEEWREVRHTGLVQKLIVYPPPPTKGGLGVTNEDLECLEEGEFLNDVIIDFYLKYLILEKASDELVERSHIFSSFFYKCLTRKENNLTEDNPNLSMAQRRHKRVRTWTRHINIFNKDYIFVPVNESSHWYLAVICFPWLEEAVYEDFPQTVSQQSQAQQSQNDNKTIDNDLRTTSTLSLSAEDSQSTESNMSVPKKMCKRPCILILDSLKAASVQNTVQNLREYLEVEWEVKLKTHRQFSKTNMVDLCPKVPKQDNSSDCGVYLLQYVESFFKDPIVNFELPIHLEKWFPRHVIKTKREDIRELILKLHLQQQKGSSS

[12] = target: T5, Apoptotic protease-activating factor 1 (Homo sapiens, UniProt O14727); assay: SAR analysis of small molecule Activators of Apaf-1 in a Fluorescent assay.; type: functional; conditions: read-out: EC50_Mean;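 also: caspase-3 cleavage of fluorogenic Rh110 DEVD substrate downstream of apoptosome activation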
T5 sequence (O14727 whole entry): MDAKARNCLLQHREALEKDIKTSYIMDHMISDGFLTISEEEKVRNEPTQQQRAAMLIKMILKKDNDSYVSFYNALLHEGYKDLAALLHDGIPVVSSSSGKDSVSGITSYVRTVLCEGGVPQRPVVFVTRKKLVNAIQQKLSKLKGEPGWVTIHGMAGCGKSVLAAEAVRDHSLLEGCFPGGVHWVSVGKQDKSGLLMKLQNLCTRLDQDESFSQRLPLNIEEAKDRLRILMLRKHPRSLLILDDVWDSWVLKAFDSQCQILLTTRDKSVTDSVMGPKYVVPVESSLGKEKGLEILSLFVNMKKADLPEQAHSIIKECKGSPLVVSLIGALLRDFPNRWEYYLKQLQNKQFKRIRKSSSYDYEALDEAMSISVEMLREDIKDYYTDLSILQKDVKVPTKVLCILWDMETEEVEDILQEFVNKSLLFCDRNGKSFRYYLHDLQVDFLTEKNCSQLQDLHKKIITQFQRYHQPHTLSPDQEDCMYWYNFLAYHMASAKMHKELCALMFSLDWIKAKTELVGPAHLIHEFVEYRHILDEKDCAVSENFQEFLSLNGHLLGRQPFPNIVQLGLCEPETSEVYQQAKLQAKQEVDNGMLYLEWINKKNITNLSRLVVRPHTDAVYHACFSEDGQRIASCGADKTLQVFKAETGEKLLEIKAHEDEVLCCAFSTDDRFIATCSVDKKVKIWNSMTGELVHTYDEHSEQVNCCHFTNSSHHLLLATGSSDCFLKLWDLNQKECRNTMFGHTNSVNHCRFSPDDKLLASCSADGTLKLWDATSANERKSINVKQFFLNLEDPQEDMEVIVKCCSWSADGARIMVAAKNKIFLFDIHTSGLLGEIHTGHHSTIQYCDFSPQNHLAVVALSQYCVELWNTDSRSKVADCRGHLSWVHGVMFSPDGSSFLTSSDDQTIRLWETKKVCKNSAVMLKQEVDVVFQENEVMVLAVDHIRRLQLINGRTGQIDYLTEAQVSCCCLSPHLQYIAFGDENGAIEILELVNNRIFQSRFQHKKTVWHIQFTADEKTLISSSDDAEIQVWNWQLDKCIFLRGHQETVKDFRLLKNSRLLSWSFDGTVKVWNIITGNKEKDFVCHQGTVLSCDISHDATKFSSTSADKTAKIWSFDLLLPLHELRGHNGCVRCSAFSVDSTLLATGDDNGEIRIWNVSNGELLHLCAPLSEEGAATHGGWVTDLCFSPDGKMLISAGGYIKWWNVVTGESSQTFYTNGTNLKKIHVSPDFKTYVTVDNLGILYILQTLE

[13] = target: Aryl hydrocarbon receptor (Homo sapiens, UniProt P35869); conditions: Potency;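 also: confirmatory quantitative high-throughput screen measuring activation of the AhR signaling pathway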
Aryl hydrocarbon receptor, sequence (P35869 whole entry): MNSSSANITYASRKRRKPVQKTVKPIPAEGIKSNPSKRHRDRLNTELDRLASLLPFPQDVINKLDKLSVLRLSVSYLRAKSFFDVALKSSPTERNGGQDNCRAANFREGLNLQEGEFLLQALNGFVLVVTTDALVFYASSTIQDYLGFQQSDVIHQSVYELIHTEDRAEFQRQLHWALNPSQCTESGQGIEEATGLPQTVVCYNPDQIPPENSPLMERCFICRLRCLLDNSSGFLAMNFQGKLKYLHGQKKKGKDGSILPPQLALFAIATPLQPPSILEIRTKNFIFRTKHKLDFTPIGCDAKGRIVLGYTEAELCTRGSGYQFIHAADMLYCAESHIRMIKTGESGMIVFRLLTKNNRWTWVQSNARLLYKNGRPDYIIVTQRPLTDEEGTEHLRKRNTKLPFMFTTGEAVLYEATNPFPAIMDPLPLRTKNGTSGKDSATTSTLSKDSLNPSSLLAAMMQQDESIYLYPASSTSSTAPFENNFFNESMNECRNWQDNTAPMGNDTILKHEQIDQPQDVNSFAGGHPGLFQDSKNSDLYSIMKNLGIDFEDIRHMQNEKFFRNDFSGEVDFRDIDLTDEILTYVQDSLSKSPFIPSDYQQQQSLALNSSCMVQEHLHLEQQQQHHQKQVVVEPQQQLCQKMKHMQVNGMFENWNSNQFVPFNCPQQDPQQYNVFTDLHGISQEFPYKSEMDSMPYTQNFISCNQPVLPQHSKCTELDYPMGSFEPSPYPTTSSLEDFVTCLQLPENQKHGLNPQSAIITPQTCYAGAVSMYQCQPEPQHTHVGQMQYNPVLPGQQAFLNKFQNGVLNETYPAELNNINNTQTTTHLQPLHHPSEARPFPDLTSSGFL

Cytochrome P450 3A4 = Cytochrome P450 3A4 (Homo sapiens, UniProt P08684); conditions: Potency;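 also: confirmatory qHTS run detecting inhibitors and substrates of CYP3A4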
Cytochrome P450 3A4, sequence (P08684 whole entry): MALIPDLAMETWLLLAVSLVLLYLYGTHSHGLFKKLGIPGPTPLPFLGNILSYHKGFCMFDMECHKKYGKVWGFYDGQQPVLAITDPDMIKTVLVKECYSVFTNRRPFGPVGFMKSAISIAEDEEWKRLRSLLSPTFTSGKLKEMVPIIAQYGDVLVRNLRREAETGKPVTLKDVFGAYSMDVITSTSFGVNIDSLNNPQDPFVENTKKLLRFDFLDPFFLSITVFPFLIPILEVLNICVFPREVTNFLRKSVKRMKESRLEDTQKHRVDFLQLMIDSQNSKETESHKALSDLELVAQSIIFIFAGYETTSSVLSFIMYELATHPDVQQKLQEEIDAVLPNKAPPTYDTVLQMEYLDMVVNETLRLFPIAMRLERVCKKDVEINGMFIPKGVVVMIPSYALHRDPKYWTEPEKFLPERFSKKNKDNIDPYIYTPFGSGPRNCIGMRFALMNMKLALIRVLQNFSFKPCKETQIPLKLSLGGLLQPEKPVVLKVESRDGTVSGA

[14] = target: Cyclin-dependent kinase 5 (Homo sapiens, UniProt Q00535); type: functional;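 also: CDK5 measured as one member of a kinase profiling panel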
[15] = inhibition of ARNT PAS-B/TACC3 complex formation – biochemical, AlphaScreen, cherry-picked samples, confirmation (AID 651703); type: functional, Homo sapiens;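 also: His-tagged ARNT PAS-B domain paired with GST-TACC3 E629A dimer coactivator fragment; potency of inhibitors that break up the complex and lower AlphaScreen signal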

Protein disulfide-isomerase, sequence (P07237 whole entry): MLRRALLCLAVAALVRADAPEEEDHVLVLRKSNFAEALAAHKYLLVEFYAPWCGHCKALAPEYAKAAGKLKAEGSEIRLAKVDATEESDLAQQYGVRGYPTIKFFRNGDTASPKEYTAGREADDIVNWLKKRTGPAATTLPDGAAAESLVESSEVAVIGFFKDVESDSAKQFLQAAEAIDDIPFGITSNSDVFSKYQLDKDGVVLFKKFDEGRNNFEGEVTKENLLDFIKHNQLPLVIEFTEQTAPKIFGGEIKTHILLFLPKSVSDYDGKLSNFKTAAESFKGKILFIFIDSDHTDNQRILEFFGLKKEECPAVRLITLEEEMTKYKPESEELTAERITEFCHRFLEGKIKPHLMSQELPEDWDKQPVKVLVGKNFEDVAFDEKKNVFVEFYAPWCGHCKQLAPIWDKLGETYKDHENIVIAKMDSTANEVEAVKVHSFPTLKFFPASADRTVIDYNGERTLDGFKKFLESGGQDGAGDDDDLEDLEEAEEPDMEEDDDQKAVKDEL

C[C@H](CO)N1C[C@H](C)[C@@H](CN(C)Cc2ccc(Oc3ccccc3)cc2)Oc2c(NS(C)(=O)=O)cccc2C1=O
AC50 [1]: 19.5 µM (active)

O=[N+]([O-])c1ccc(O)c(/N=C/c2sc3ccccc3c2O)c1
IC50 (Nonstructural protein 1): > 100 µM (active) | IC50 [2]: 3.28 µM (active) | EC50 (Streptococcus): 9.08 µM (active) | EC50 [3]: 5.2 µM (active) | IC50 [4]: > 100 µM (inactive) | IC50 (Prothrombin): 2.57 µM (active)

O=c1c(Oc2ccc3cc[nH]c3c2)c(Cl)cnn1Cc1cccc2ccccc12
IC50 [5]: 18.6 µM (inactive) | IC50 [6]: 1.01 µM (active)

COc1ccc(CCN(C)C(=O)CCc2ccc(Cl)c(Cl)c2)cc1OC
Ki [7]: 2 µM (active) | Ki [8]: 2.51 µM (active)

COc1cc2cc(NC(C)=O)cc(NCCCO)c2cc1OC
IC50 [9]: 16.9 µM (active) | IC50 (Caspase-3): 37.7 µM (active) | IC50 [10]: 56 µM (active) | IC50 [11]: 29.3 µM (active)

CC(Nc1ccccc1)C(=O)O (stereo not drawn)
EC50 [12]: > 100 µM (inactive)

COc1cccc2sc(N)nc12
AC50 [13]: 50.1 µM (inconclusive) | AC50 (Cytochrome P450 3A4): 15.8 µM (inconclusive)

C=C1c2ccccc2CC(CCN(C)C)c2ccccc21 (stereo not drawn)
Ki [14]: 3.16 µM (active) | Ki [8]: 1.26 µM (active)

N#Cc1ccccc1C(C#N)c1c(Cl)cnn(Cc2cccc3ccccc23)c1=O (stereo not drawn)
IC50 [5]: 9.7 µM (active) | IC50 [6]: 0.782 µM (active)

CC(C)CC(=O)Nc1ccc2nc(NC(=O)c3ccccc3)sc2c1
IC50 [9]: 6.09 µM (active) | IC50 (Caspase-3): 7.24 µM (active) | IC50 [10]: 6.63 µM (active) | IC50 [11]: 3.07 µM (active)

O=C1NC[C@H](Cc2ccc(O)cc2)N(CC2CCCCC2)C1=O
AC50 [1]: 19.5 µM (active)

Cn1c(-c2ccccc2)cnc1NC(=O)c1cc(-c2ccccc2)on1
AC50 [15]: 117 µM (active)
